This is an account of results in patent publication US20260055102A1 (Redx Pharma Limited, priority 2022, published 2026).

The target in assay [1] is Recombinant human DDR2 (aa427-855 containing a GST tag) (Homo sapiens (Human), UniProt Q16832). Description: LanthaScreen Eu Kinase Binding Assay DDR2. The following applies: Kinase Tracer 178 10 nM, at least two independent replicates; for IC50: read-out: DDR2 pIC50 (converted). As to the method:
(§1) DDR1 and DDR2 Biochemical Assay Method The capacity of compounds to bind to DDR1 and DDR2 was quantified using a LanthaScreen Eu Kinase Binding Assay. Recombinant human DDR1 (2.5 nM; aa440-876 containing a GST tag) and DDR2 (1.75 nM; aa427-855 containing a GST tag) were diluted in assay buffer (50 mM HEPES pH7.3, 10 mM MgCl2, 1 mM EGTA and 0.01% Tween) with various concentrations of compound in a 384-well plate and a volume of 5 uL. After a 30-minute incubation at room temperature, 2.5 uL of Eu-anti GST antibody (diluted to 1 nM in assay buffer) plus Kinase Tracer 178 (diluted in assay buffer to 5 nM for DDR1 and 10 nM for DDR2) were added to the plate. Following 60-minute incubation at room temperature, time-resolved fluorescence was measured on a BMG Labtech PHERAstar plate reader. DMSO (1%) and reference compound (1 μM) were used to generate the Max and Min assay signals, respectively. Data was analysed using a four-parameter logistic model to calculate IC50 values, with at least two independent replicates were performed for each compound.
Background: Time-resolved FRET reads energy transfer from a long-lived donor to a nearby acceptor.

For assay [2], the target named is Recombinant human DDR1 (aa440-876 containing a GST tag) (Homo sapiens (Human), UniProt Q08345). Description: LanthaScreen Eu Kinase Binding Assay DDR1. The following applies: Kinase Tracer 178 5 nM, at least two independent replicates; for IC50: read-out: DDR1 pIC50 (converted). The method, then: as §1
Sequence of Recombinant human DDR1 (aa440-876 containing a GST tag) (Q08345 other isoform, or with tags, fused parts or gaps): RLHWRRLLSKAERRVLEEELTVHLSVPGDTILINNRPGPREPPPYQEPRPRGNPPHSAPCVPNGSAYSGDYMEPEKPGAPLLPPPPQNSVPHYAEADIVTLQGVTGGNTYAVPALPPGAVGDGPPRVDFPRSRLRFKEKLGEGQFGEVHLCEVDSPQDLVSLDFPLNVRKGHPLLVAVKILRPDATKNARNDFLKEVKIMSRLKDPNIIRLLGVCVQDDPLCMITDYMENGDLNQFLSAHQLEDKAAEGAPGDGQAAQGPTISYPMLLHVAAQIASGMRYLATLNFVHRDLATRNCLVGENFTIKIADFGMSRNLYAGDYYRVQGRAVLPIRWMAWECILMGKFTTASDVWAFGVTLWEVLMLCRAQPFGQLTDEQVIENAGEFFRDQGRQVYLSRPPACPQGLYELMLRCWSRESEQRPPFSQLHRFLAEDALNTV

Sequence of Recombinant human DDR2 (aa427-855 containing a GST tag) (Q16832 427-855): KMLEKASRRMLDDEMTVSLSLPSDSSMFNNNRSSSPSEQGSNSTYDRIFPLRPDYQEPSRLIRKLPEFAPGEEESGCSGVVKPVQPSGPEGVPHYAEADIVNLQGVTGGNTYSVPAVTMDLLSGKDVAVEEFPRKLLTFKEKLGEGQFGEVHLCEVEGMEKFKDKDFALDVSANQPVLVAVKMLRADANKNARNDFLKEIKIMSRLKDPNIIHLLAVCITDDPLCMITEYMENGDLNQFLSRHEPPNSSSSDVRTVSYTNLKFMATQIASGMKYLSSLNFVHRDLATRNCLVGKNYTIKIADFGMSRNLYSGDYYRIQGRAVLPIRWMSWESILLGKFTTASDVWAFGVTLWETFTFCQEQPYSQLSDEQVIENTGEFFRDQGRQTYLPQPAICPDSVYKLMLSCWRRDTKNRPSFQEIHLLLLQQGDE

Take `Cn1ncc2c(-c3ccc(-n4c(=O)n(CC(=O)N5CCCC[C@H]5C(F)(F)F)c5ccccc54)cc3)cncc21` [Example 32, 1-[4-(1-methylpyrazolo[3,4-c]pyridin-4-yl)phenyl]-3-[2-oxo-2-[(2S)-2-(trifluoromethyl)-1-piperidyl]ethyl]benzimidazol-2-one]: the IC50 in assay [1] was 100 to 1000 nM. In addition, in assay [2], the “DDR1 pIC50” value is “A (pIC50>8)”.

Turning to `CC(CNC(=O)Cn1c(=O)n(-c2ccc(-c3cncc4c3cnn4C)cc2)c2ccccc21)C(F)(F)F` (centres unmarked) [Example 33, 2-[3-[4-(1-methylpyrazolo[3,4-c]pyridin-4-yl)phenyl]-2-oxobenzimidazol-1-yl]-N-(3,3,3-trifluoro-2-methyl-propyl)acetamide], the “DDR2 pIC50” value in assay [1] is “D (pIC50≤6)”. Moreover, in assay [2], the IC50 is 10 to 100 nM.

On to `Cn1ncc2c(-c3ccc(-n4c(=O)n(CC(=O)N5CC(C(F)(F)F)C5)c5ccccc54)cc3)cncc21` [Example 34, 1-[4-(1-methylpyrazolo[3,4-c]pyridin-4-yl)phenyl]-3-[2-oxo-2-[3-(trifluoromethyl)azetidin-1-yl]ethyl]benzimidazol-2-one], for which the “DDR2 pIC50” value in assay [1] is recorded as “D (pIC50≤6)”. In addition, the IC50 in assay [2] is 100 to 1000 nM.

`Cn1ncc2c(-c3ccc(-n4c(=O)n(CC(=O)N5CC(F)(F)C5)c5ccccc54)cc3)cncc21` [Example 35, 1-[2-(3,3-difluoroazetidin-1-yl)-2-oxoethyl]-3-[4-(1-methylpyrazolo[3,4-c]pyridin-4-yl)phenyl]benzimidazol-2-one]: the “DDR2 pIC50” value in assay [1] is listed as “D (pIC50≤6)”. Further, in assay [2], the “DDR1 pIC50” value is listed as “D (pIC50≤6)”.

As for `Cn1ncc2c(-c3ccc(-n4c(=O)n(CC(=O)NC5CC5(F)F)c5ccccc54)cc3)cncc21` (centres unmarked) [Example 36, N-(2,2-difluorocyclopropyl)-2-[3-[4-(1-methylpyrazolo[3,4-c]pyridin-4-yl)phenyl]-2-oxobenzimidazol-1-yl]acetamide], the “DDR2 pIC50” value in assay [1] was “D (pIC50≤6)”. Moreover, the IC50 in assay [2] is 100 to 1000 nM.

Turning to `Cn1ncc2c(-c3ccc(-n4c(=O)n(CC(=O)N5CCO[C@@H](C(F)(F)F)C5)c5ccccc54)cc3)cncc21` [Example 37, 1-[4-(1-methylpyrazolo[3,4-c]pyridin-4-yl)phenyl]-3-[2-oxo-2-[(2R)-2-(trifluoromethyl)morpholin-4-yl]ethyl]benzimidazol-2-one], in assay [1], the “DDR2 pIC50” value is “D (pIC50≤6)”. In assay [2], the IC50 was 10 to 100 nM.

On to `Cn1ncc2c(-c3ccc(-n4c(=O)n(CC(=O)N5CCO[C@H](C(F)(F)F)C5)c5ccccc54)cc3)cncc21` [Example 38, 1-[4-(1-methylpyrazolo[3,4-c]pyridin-4-yl)phenyl]-3-[2-oxo-2-[(2S)-2-(trifluoromethyl)morpholin-4-yl]ethyl]benzimidazol-2-one], for which the “DDR2 pIC50” value in assay [1] is listed as “D (pIC50≤6)”. Moreover, in assay [2], the IC50 was 10 to 100 nM.

With `Cc1cccc2c1n(-c1ccc(-c3cncc4c3cnn4C)cc1)c(=O)n2CC(=O)N1CCOCC1C(F)(F)F` (centres unmarked) [Example 39, 4-methyl-3-[4-(1-methylpyrazolo[3,4-c]pyridin-4-yl)phenyl]-1-[2-oxo-2-[3-(trifluoromethyl)morpholin-4-yl]ethyl]benzimidazol-2-one], the IC50 in assay [1] is 10 to 100 nM. Further, the “DDR1 pIC50” value in assay [2] was “A (pIC50>8)”.

Take `Cc1cc(-c2cncc3c2cnn3C)ccc1-n1c(=O)n(CC(=O)N2CCOC(C(F)(F)F)C2)c2ccccc21` (centres unmarked) [Example 40, 1-[2-methyl-4-(1-methylpyrazolo[3,4-c]pyridin-4-yl)phenyl]-3-[2-oxo-2-[2-(trifluoromethyl)morpholin-4-yl]ethyl]benzimidazol-2-one]: in assay [1], the “DDR2 pIC50” value is reported as “D (pIC50≤6)”. For the same molecule, the IC50 in assay [2] is 10 to 100 nM.

As to `O=C(Cn1c(=O)n(-c2ccc(-c3cncc4[nH]ncc34)cc2)c2ccccc21)NCC(F)(F)F` [Example 41, 2-[2-oxo-3-[4-(1H-pyrazolo[3,4-c]pyridin-4-yl)phenyl]benzimidazol-1-yl]-N-(2,2,2-trifluoroethyl)acetamide], the IC50 in assay [1] is 100 to 1000 nM; in assay [2] it was 10 to 100 nM.

Take `Cc1cccc2c1n(-c1ccc(-c3cncc4c3cnn4C)cc1)c(=O)n2CC(=O)N1CCO[C@H](C(F)(F)F)C1` [Example 42, 4-methyl-3-[4-(1-methylpyrazolo[3,4-c]pyridin-4-yl)phenyl]-1-[2-oxo-2-[(2S)-2-(trifluoromethyl)morpholin-4-yl]ethyl]benzimidazol-2-one]: the IC50 in assay [1] was 10 to 100 nM. The “DDR1 pIC50” value in assay [2] was “A (pIC50>8)”.

As to `Cc1cccc2c1n(-c1ccc(-c3cncc4c3cnn4C)cc1)c(=O)n2CC(=O)N1CCC[C@H]1C(F)F` [Example 43, 1-[2-[(2S)-2-(difluoromethyl)pyrrolidin-1-yl]-2-oxo-ethyl]-4-methyl-3-[4-(1-methylpyrazolo[3,4-c]pyridin-4-yl)phenyl]benzimidazol-2-one], the IC50 in assay [1] was 10 to 100 nM. The “DDR1 pIC50” value in assay [2] is “A (pIC50>8)”.

In the case of `Cc1cccc2c1n(-c1ccc(-c3cncc4[nH]ncc34)cc1)c(=O)n2CC(=O)NCC(F)(F)F` [Example 44, 2-[4-methyl-2-oxo-3-[4-(1H-pyrazolo[3,4-c]pyridin-4-yl)phenyl]benzimidazol-1-yl]-N-(2,2,2-trifluoroethyl)acetamide], the IC50 is 10 to 100 nM in assay [1] and < 10 nM in assay [2].

`Cc1cccc2c1n(-c1ccc(-c3cncc4c3cnn4C)cc1)c(=O)n2CC(=O)N1CCC[C@H]1CF` [Example 45, 1-[2-[(2S)-2-(fluoromethyl)pyrrolidin-1-yl]-2-oxo-ethyl]-4-methyl-3-[4-(1-methylpyrazolo[3,4-c]pyridin-4-yl)phenyl]benzimidazol-2-one]: the IC50 in assay [1] was 10 to 100 nM. The “DDR1 pIC50” value in assay [2] is listed as “A (pIC50>8)”.

On to `Cn1ncc2c(-c3ccc(-n4c(=O)n(CC(=O)NCCC(F)(F)F)c5ccccc54)cc3)cncc21` [Example 46, 2-[3-[4-(1-methylpyrazolo[3,4-c]pyridin-4-yl)phenyl]-2-oxo-benzimidazol-1-yl]-N-(3,3,3-trifluoropropyl)acetamide], for which the “DDR2 pIC50” value in assay [1] is on record as “D (pIC50≤6)”. For the same molecule, the IC50 in assay [2] is 10 to 100 nM.

Turning to `Cc1cccc2c1n(-c1cnc(-c3cncc4c3cnn4C)cn1)c(=O)n2CC(=O)NCC(F)(F)F` [Example 47, 2-[4-methyl-3-[5-(1-methylpyrazolo[3,4-c]pyridin-4-yl)pyrazin-2-yl]-2-oxo-benzimidazol-1-yl]-N-(2,2,2-trifluoroethyl)acetamide], the IC50 in assay [1] is 100 to 1000 nM. For the same molecule, in assay [2], the “DDR1 pIC50” value was “A (pIC50>8)”.

`Cc1cccc2c1n(-c1cnc(-c3cncc4c3cnn4C)cn1)c(=O)n2CC(=O)N[C@H](C)C(F)(F)F` [Example 48, 2-[4-methyl-3-[5-(1-methylpyrazolo[3,4-c]pyridin-4-yl)pyrazin-2-yl]-2-oxo-benzimidazol-1-yl]-N-[(1R)-2,2,2-trifluoro-1-methyl-ethyl]acetamide]: the “DDR2 pIC50” value in assay [1] was “D (pIC50≤6)”. Further, in assay [2], the IC50 is 10 to 100 nM.

Take `Cc1cccc2c1n(-c1cnc(-c3cncc4c3cnn4C)cn1)c(=O)n2CC(=O)N[C@@H](C)C(F)(F)F` [Example 49, 2-[4-methyl-3-[5-(1-methylpyrazolo[3,4-c]pyridin-4-yl)pyrazin-2-yl]-2-oxo-benzimidazol-1-yl]-N-[(1S)-2,2,2-trifluoro-1-methyl-ethyl]acetamide]: the IC50 in assay [1] is 10 to 100 nM. Besides, the “DDR1 pIC50” value in assay [2] was “A (pIC50>8)”.

`Cc1cccc2c1n(-c1ccc(-c3cncc4c3cnn4C)nc1)c(=O)n2CC(=O)NCC(F)(F)F` [Example 50, 2-[4-methyl-3-[6-(1-methylpyrazolo[3,4-c]pyridin-4-yl)-3-pyridyl]-2-oxo-benzimidazol-1-yl]-N-(2,2,2-trifluoroethyl)acetamide]: the IC50 in assay [1] was 10 to 100 nM. For the same molecule, the “DDR1 pIC50” value in assay [2] was “A (pIC50>8)”.

As for `Cc1cccc2c1n(-c1ccc(-c3cncc4c3cnn4C)nc1)c(=O)n2CC(=O)N[C@H](C)C(F)(F)F` [Example 51, 2-[4-methyl-3-[6-(1-methylpyrazolo[3,4-c]pyridin-4-yl)-3-pyridyl]-2-oxo-benzimidazol-1-yl]-N-[(1R)-2,2,2-trifluoro-1-methyl-ethyl]acetamide], the IC50 in assay [1] is 100 to 1000 nM; in assay [2], 10 to 100 nM.

Regarding `Cc1cccc2c1n(-c1ccc(-c3cncc4c3cnn4C)nc1)c(=O)n2CC(=O)N[C@@H](C)C(F)(F)F` [Example 52, 2-[4-methyl-3-[6-(1-methylpyrazolo[3,4-c]pyridin-4-yl)-3-pyridyl]-2-oxo-benzimidazol-1-yl]-N-[(1S)-2,2,2-trifluoro-1-methyl-ethyl]acetamide], the IC50 in assay [1] is 10 to 100 nM. Also, in assay [2], the “DDR1 pIC50” value is on record as “A (pIC50>8)”.

Take `Cc1cccc2c1n(-c1ccc(-c3cncc4c3cnn4C)nc1)c(=O)n2CC(=O)N1CCOC[C@H]1C(F)(F)F` [Example 53, 4-methyl-3-[6-(1-methylpyrazolo[3,4-c]pyridin-4-yl)-3-pyridyl]-1-[2-oxo-2-[(3S)-3-(trifluoromethyl)morpholin-4-yl]ethyl]benzimidazol-2-one]: the IC50 in assay [1] is 10 to 100 nM. The “DDR1 pIC50” value in assay [2] was “A (pIC50>8)”.
